Activity calls are given as the source filed them. No cut-off for these calls is given here.

25 compounds from ChEMBL document CHEMBL1140931, “Discovery of the first selective inhibitor of excitatory amino acid transporter subtype 1” (J Med Chem, 2009) can be followed below.

Assay [1] deals with Excitatory amino acid transporter 2 (Homo sapiens, UniProt P43004). Kind of assay: Displacement of [3H]D-Asp from human EAAT2 receptor expressed in HEK293 cells. Background: Displacement assays read how much labelled ligand stays bound in the presence of the test substance.
Chain of Excitatory amino acid transporter 2 (P43004 whole entry): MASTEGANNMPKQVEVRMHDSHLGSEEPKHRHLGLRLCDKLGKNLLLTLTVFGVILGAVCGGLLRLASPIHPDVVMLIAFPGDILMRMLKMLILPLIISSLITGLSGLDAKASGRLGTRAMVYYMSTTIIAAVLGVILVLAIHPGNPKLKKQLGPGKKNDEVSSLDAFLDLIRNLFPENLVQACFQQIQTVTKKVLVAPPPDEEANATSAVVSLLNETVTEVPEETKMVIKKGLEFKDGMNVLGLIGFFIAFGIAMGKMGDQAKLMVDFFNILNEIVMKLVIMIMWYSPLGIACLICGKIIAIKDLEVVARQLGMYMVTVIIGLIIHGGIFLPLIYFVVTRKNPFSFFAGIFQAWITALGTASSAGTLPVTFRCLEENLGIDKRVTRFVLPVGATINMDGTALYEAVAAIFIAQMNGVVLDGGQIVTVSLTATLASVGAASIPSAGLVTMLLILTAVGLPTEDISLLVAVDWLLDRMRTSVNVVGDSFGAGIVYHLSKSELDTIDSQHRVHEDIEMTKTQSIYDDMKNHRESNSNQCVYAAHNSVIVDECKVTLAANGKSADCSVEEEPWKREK
Assay [2] deals with T1, Excitatory amino acid transporter 3 (Homo sapiens, UniProt P43005).
T1 sequence (P43005 whole entry): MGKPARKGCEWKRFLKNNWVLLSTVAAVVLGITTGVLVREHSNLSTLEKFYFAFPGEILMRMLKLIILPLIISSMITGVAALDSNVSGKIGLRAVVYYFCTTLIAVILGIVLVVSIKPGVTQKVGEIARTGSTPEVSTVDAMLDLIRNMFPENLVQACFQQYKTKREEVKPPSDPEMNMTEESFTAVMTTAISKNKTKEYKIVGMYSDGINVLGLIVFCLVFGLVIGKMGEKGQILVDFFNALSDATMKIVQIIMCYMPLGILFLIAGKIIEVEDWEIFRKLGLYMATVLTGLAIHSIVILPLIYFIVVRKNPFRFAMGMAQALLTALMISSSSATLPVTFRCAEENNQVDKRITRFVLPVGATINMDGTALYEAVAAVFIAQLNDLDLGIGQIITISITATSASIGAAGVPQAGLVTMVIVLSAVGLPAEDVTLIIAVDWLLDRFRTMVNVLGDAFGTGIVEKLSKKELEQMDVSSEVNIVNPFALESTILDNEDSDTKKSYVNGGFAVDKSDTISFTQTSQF
Put plainly: Displacement of [3H]D-Asp from human EAAT3 receptor expressed in HEK293 cells.

Assay [3] deals with T2, Excitatory amino acid transporter 1 (Homo sapiens, UniProt P43003). Put plainly: Displacement of [3H]D-Asp from human EAAT1 receptor expressed in HEK293 cells.
T2 sequence (P43003 whole entry): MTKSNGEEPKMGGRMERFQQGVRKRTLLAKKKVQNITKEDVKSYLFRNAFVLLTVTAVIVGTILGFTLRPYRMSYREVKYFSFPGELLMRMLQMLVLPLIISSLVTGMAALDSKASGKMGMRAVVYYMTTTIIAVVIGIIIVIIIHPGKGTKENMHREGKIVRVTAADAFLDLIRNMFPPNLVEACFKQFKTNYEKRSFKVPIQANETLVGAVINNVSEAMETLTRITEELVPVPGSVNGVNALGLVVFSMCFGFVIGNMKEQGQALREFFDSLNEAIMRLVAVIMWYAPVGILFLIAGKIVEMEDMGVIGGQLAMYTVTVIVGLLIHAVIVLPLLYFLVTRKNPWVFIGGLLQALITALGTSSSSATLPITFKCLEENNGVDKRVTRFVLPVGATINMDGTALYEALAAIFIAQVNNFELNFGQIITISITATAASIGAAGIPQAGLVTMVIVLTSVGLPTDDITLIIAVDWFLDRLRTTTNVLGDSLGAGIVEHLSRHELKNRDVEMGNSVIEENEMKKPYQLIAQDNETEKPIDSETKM
In assay [4] the target is T3, Excitatory amino acid transporter 1 (Rattus norvegicus, UniProt P24942).
T3 sequence (P24942 whole entry): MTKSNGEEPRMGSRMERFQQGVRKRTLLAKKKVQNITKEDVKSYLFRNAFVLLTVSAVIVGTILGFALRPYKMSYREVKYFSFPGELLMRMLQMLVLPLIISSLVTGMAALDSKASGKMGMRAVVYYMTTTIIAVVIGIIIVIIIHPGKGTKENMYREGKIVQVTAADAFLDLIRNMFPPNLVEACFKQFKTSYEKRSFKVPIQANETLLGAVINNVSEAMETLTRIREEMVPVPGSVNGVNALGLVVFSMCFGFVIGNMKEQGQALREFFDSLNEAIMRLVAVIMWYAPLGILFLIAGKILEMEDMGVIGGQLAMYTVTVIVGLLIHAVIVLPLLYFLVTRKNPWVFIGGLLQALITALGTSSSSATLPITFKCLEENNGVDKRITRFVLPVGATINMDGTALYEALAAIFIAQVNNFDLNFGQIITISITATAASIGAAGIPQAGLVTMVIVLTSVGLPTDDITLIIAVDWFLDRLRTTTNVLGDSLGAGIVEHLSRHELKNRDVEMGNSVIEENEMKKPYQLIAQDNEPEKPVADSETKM
Put plainly: Activity at rat EAAT1 expressed in TSA201 cells assessed as inhibition of Glu-induced fluorescent response by FLIPR membrane potential blue assay. It counts as cell-based.

The target in assay [5] is T4, Excitatory amino acid transporter 3 (Homo sapiens) (UniProt P43005).
T4 sequence (whole entry): T1 sequence (P43005 whole entry)
Kind of assay: Activity of human EAAT3 expressed in HEK293 cells up to 100 uM. The assay is classed as cell-based.

In assay [6] the target is T2, Excitatory amino acid transporter 1. Put plainly: Activity of human EAAT1 expressed in HEK293 cells up to 100 uM. It counts as cell-based.
The target is the same in assay [7]. Kind of assay: Activity at human EAAT1 expressed in HEK293 cells assessed as inhibition of Glu-induced fluorescent response by FLIPR membrane potential blue assay.

As a reminder, the IC50 is the concentration needed to halve the response being measured. Turning to `N#CC1=C(N)OC2=C(C1)C(=O)CC(c1ccccc1)C2` (centres undefined), the values for the IC50 in assay [1], in assay [2] and in assay [3] were greater than 316 µM, greater than 316 µM and greater than 300 µM, respectively.
For the compound `N#CC1=C(N)OC2=C(C(=O)CC(c3ccco3)C2)C1c1ccccc1` (centres undefined), the IC50 was greater than 316 µM in assay [1], greater than 316 µM in assay [2] and 7.3 µM in assay [3].
For the compound `CSc1ccc(C2C(C#N)=C(N)OC3=C2C(=O)CC(c2ccccc2)C3)cc1` (centres undefined), the IC50 was greater than 100 µM in assay [1], greater than 100 µM in assay [2] and 2.7 µM in assay [3].
`N#CC1=C(N)OC2=C(C(=O)CC(c3ccccc3)C2)C1c1cccs1` (centres undefined): the IC50 was greater than 100 µM in assay [1], greater than 100 µM in assay [2] and 14 µM in assay [3].
In the case of `N#CC1=C(N)OC2=C(C(=O)CC(c3ccccc3)C2)C1c1cccnc1` (centres undefined), the IC50 in assay [1] is greater than 316 µM; in assay [2], greater than 316 µM; in assay [3], 30 µM.
Turning to `N#CC1=C(N)OC2=C(C(=O)CC(c3ccccc3)C2)C1Cc1ccccc1` (centres undefined), the values for the IC50 in assay [1], in assay [2] and in assay [3] were greater than 100 µM, greater than 100 µM and 30 µM, respectively.
Consider `COc1ccc(C2C(C#N)=C(N)OC3=C2C(=O)CC(c2ccccc2)C3)cc1` (centres undefined), for which the IC50 in assay [1] and in assay [2] was greater than 100 µM throughout.
As to `COc1cccc(C2C(C#N)=C(N)OC3=C2C(=O)CC(c2ccccc2)C3)c1OC` (centres undefined), the IC50 was greater than 100 µM in assay [1], greater than 100 µM in assay [2] and roughly 50 µM in assay [3].
For the compound `COc1ccc(C2C(C#N)=C(N)OC3=C2C(=O)CC(c2ccccc2Cl)C3)cc1` (centres undefined), the figures for the half-inhibitory concentration (IC50) in assay [1], in assay [2] and in assay [3] were greater than 316 µM, greater than 316 µM and 3.2 µM, respectively.
Turning to `N#CC1=C(N)OC2=C(C(=O)CC(c3cccs3)C2)C1c1ccc([N+](=O)[O-])cc1` (centres undefined), the values for the IC50 in assay [1], in assay [2] and in assay [3] were greater than 316 µM, greater than 316 µM and 9.9 µM, respectively.
For `N[C@@H](COS(=O)(=O)O)C(=O)O`, the IC50 in assay [2] and in assay [3] was 100 µM throughout.
`N#CC1=C(N)OC2=C(C(=O)CC(c3ccccc3)C2)C1c1ccc2c(c1)OCO2` (centres undefined): the IC50 in assay [1] is greater than 316 µM; in assay [2] it was greater than 316 µM; in assay [3], 4 µM.
For the compound `N#CC1=C(N)OC2=C(C(=O)CC(c3ccccc3)C2)C1c1ccc([N+](=O)[O-])cc1` (centres undefined), the IC50 in assay [1] was greater than 100 µM; in assay [2], greater than 100 µM; in assay [3], 3.6 µM.
Consider `CC1CC(=O)C2=C(C1)OC(N)=C(C#N)C2c1ccc2c(c1)OCO2` (centres undefined), for which the IC50 in assay [1] is greater than 316 µM; in assay [2], greater than 316 µM; in assay [3], greater than 300 µM.
Consider `N#CC1=C(N)OC2=C(C(=O)CC(c3ccccc3)C2)C1c1c[nH]c2ccccc12` (centres undefined), for which the IC50 in assay [1], in assay [1] (hek293), in assay [2], in assay [2] (hek293) and in assay [3] was greater than 100 µM throughout.
On to `N#CC1=C(N)OC2=C(C(=O)CCC2)C1c1ccccc1F` (centres undefined), for which the IC50 was greater than 316 µM in assay [1], greater than 316 µM in assay [2] and greater than 300 µM in assay [3].
`COc1ccc(C2C(C#N)=C(N)OC3=C2C(=O)CC(c2cccc4ccccc24)C3)cc1` (centres undefined): the IC50 is 0.97 µM in assay [4]; greater than 316 µM in assay [1]; greater than 316 µM in assay [2]; 0.66 µM in assay [3]; 0.12 µM in assay [7]. In addition, the result in assay [5] and in assay [6] was inactive.
On to `CC1C(C#N)=C(N)OC2=C1C(=O)CC(c1ccccc1)C2` (centres undefined), for which the IC50 in assay [1] was greater than 316 µM; in assay [2], greater than 316 µM; in assay [3], 9.2 µM.
On to `N#CC1=C(N)OC2=C(C(=O)CC(c3ccccc3)C2)C1c1ccc2ccccc2c1` (centres undefined), for which the IC50 in assay [1] was greater than 100 µM; in assay [2], greater than 100 µM; in assay [3] it was 3.6 µM.
For `N#CC1=C(N)OC2=C(C(=O)CC(c3ccccc3)C2)C1c1ccccc1F` (centres undefined), the IC50 in assay [1] is greater than 100 µM; in assay [2] it was greater than 100 µM; in assay [3] it was 4.7 µM.
On to `N#CC1=C(N)OC2=C(C(=O)CC(c3ccccc3)C2)C1c1cc(Br)cs1` (centres undefined), for which the IC50 was greater than 100 µM in assay [1], greater than 100 µM in assay [2] and 4.7 µM in assay [3].
For `COc1ccc(C2C(C#N)=C(N)OC3=C2C(=O)CC(c2ccco2)C3)cc1OC(=O)N1CCOCC1` (centres undefined), the figures for the concentration for half-maximal inhibition (IC50) in assay [1], in assay [2] and in assay [3] were greater than 316 µM, greater than 316 µM and 100 µM, respectively.
Consider `COc1cc(C2C(C#N)=C(N)OC3=C2C(=O)CC(c2ccccc2)C3)ccc1OCc1c(F)cccc1Cl` (centres undefined), for which the IC50 in assay [1] is greater than 100 µM; in assay [2], greater than 100 µM; in assay [3], 4.3 µM.
In the case of `N#CC1=C(N)OC2=C(C(=O)CC(c3ccccc3)C2)C1c1ccc(-c2ccccc2)cc1` (centres undefined), the values for the IC50 in assay [1], in assay [2] and in assay [3] were greater than 100 µM, greater than 100 µM and 2.1 µM, respectively.
Regarding `N#CC1=C(N)OC2=C(C(=O)CC(c3ccccc3)C2)C1c1cccc2ccccc12` (centres undefined), the values for the half-inhibitory concentration (IC50) in assay [1], in assay [2] and in assay [3] were greater than 100 µM, greater than 100 µM and 7.4 µM, respectively.
